Assay results from US6037341A, “Carbapenem derivatives” (Eisai Co., Ltd., priority 1994, dated 2000).
Values after ≈ are worked out from the molar mass of the structure shown.

Experiments:
Type in all cases: cell-based
[1] = test system: P. aeruginosa E03402; experiment: MIC, P. aeruginosa E03402; settings: Pseudomonas aeruginosa
[2] = test system: P. aeruginosa PA01; experiment: MIC, P. aeruginosa PA01; settings: Pseudomonas aeruginosa
[3] = test system: S. aureus E31295; experiment: MIC, S. aureus E31295; settings: Staphylococcus aureus
[4] = test system: P. aeruginosa E03441/SKR2-14; experiment: MIC, P. aeruginosa E03441/SKR2-14; settings: Pseudomonas aeruginosa, E03441/SKR214
[5] = test system: P. aeruginosa E03441/SKR2/I-2; experiment: MIC, P. aeruginosa E03441/SKR2/I-2; settings: Pseudomonas aeruginosa
[6] = test system: P. aeruginosa E03441/SKR2; experiment: MIC, P. aeruginosa E03441/SKR2; settings: Pseudomonas aeruginosa
[7] = test system: P. aeruginosa E03441/WT; experiment: MIC, P. aeruginosa E03441/WT; settings: Pseudomonas aeruginosa
[8] = test system: E. coli CS109; experiment: MIC, E. coli CS109; settings: Escherichia coli
[9] = test system: P. aeruginosa E03763; experiment: MIC, P. aeruginosa E03763; settings: Pseudomonas aeruginosa
[10] = test system: P. aeruginosa NCTC10490; experiment: MIC, P. aeruginosa NCTC10490; settings: Pseudomonas aeruginosa
[11] = test system: H. influenzae IID1638; experiment: MIC, H. influenzae IID1638; settings: Haemophilus influenzae
[12] = test system: P. aeruginosa E03441/R24; experiment: MIC, P. aeruginosa E03441/R24; settings: Pseudomonas aeruginosa

Q: With `C[C@@H](O)[C@H]1C(=O)N2C(C(=O)O)=C(S[C@@H]3CN[C@H](C(O)C4CCNC4)C3)[C@H](C)[C@H]12` (stereo partly drawn) as the molecule, how does the MIC [1] read?
A: 0.1 µg/mL (≈ 0.243 µM)

Q: What about the MIC [2] of the same molecule?
A: 0.2 µg/mL (≈ 0.486 µM)

Q: And the MIC [3]?
A: 0.1 µg/mL (≈ 0.243 µM)

Q: And the MIC [4]?
A: 0.1 µg/mL (≈ 0.243 µM)

Q: And the MIC [5]?
A: 0.4 µg/mL (≈ 0.972 µM)

Q: And the MIC [6]?
A: 0.2 µg/mL (≈ 0.486 µM)

Q: What about the MIC [7] of the same molecule?
A: 0.2 µg/mL (≈ 0.486 µM)

Q: And the MIC [8]?
A: 0.05 µg/mL (≈ 0.121 µM)

Q: What about the MIC [9] of the same molecule?
A: 0.8 µg/mL (≈ 1.94 µM)

Q: What about the MIC [10] of the same molecule?
A: 0.1 µg/mL (≈ 0.243 µM)

Q: What about the MIC [11] of the same molecule?
A: 0.2 µg/mL (≈ 0.486 µM)

Q: And the MIC [12]?
A: 3.13 µg/mL (≈ 7.61 µM)
